The source of these data is patent US10351530B2, “Arylcyclohexyl pyrazoles as NRF2 regulators” (GlaxoSmithKline Intellectual Property Development Limited, priority 2015, dated 2019).

For test [1], the system named is NQO1 specific enzyme activity in BEAS-2B cells. Nature of the test: BEAS-2B NQO1 MTT Assay. The format is cell-based. As to conditions: NQO1 specific activity induction. The method, boiled down: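 BEAS-2B cells exposed to compound for 48 h at 37 °C, 5% CO2, then lysed. NQO1 activity in crude lysate read kinetically by MTT cocktail absorbance at 570 nm over 30 min. pEC50 from ΔOD/min versus log concentration, 3-parameter fit.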

Test [2] addresses T1, Keap1/NRF2 (Homo sapiens, UniProt Q14145).
T1 construct: Keap1 (321-609) is diluted to 40 nM (2×) in 1× assay buffer
As to the kind of experiment: NRF2-Keap1 FP Assay (Kelch domain (321-609) of Keap1, TAMRA-labeled NRF2 ETGE peptide). Type of test: binding. The note with it: Keap1 (321-609) 20 nM, Tamra labeled peptide 8 nM. Put shortly:
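Fluorescence polarization competition: Keap1 Kelch (321-609) at 20 nM final and TAMRA-ETGE 16-mer peptide at 8 nM final with 3-fold compound dilutions, 1 h room temperature in Tris pH 8.0 buffer (NaCl, MgCl2, DTT, CHAPS, BSA). mP normalized to protein+peptide and peptide-alone controls; pIC50 by four-parameter fit.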

T1 sequence (Q14145 321-609): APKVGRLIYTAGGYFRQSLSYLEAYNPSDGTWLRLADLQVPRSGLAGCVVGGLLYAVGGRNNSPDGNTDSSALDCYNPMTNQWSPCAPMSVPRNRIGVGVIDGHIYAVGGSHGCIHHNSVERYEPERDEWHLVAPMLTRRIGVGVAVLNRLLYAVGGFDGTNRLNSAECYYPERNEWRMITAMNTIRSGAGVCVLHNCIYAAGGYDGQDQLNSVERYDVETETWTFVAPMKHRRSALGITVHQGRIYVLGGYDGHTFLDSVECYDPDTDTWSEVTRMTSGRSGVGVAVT

`CCCCC1CCCN1C(=O)C1CCCC(c2cccc(-n3ncc(C(=O)O)c3C3CC3)c2)C1` (racemic) [Example 8c, 1-{3-[3-(2-Butylpyrrolidine-1-carbonyl)cyclohexyl]phenyl}-5-cyclopropyl-1H-pyrazole-4-carboxylic Acid]: the EC50 in test [1] (Homo sapiens, BEAS-2B, 48 h) was 100 to 1000 nM. Also, the IC50 in test [2] was 10 to 100 nM.
In turn, `CC(C)CCC1CCCN1C(=O)C1CCCC(c2cccc(-n3ncc(C(=O)O)c3C3CC3)c2)C1` (racemic) [Example 11, 5-Cyclopropyl-1-(3-{3-[2-(3-methylbutyl)pyrrolidine-1-carbonyl]cyclohexyl}phenyl)-1H-pyrazole-4-carboxylic Acid] yielded an EC50 in test [1] (Homo sapiens, BEAS-2B, 48 h) of 100 to 1000 nM. The same compound had an IC50 in test [2] of 10 to 100 nM.
The like results for `O=C(O)c1cnn(-c2cccc(C3CCCC(C(=O)N4CCCC4C4CC4)C3)c2)c1C1CC1` (racemic) [Example 12, 5-cyclopropyl-1-{3-[3-(2-cyclopropylpyrrolidine-1-carbonyl)cyclohexyl]phenyl}-1H-pyrazole-4-carboxylic Acid] were, in that order, 100 to 1000 nM and 10 to 100 nM.
Taken in the same sequence, the figures for `CC1(C)CCc2cnn([C@@H]3CCC[C@@H](c4cccc(-n5ncc(C(=O)O)c5C5CC5)c4)C3)c21` (racemic) [Example 23, 5-Cyclopropyl-1-(3-(t-3-(6,6-dimethyl-5,6-dihydrocyclopenta[c]pyrazol-1(4H)-yl)cyclohexyl)phenyl)-1H-pyrazole-4-carboxylic Acid] were 100 to 1000 nM and 1000 to 10000 nM.
Take `CCOC[C@@H]1CCCN1C(=O)C1CCCC(c2cccc(-n3ncc(C(=O)O)c3C3CC3)c2)C1` (single isomer, unassigned) [Example 18g]: the EC50 in test [1] (48 hours) was in the range of 100 to 1000 nM. In test [2], the IC50 lay within 10 to 100 nM.
`CCCC[C@@H]1CCCN1C(=O)[C@H]1CCC[C@@H](c2cccc(-n3ncc(C(=O)O)c3C3CC3)c2)C1` [Example 17f, 1-{3-[(1R,3S)-3-[(2R)-2-Butylpyrrolidine-1-carbonyl]cyclohexyl]phenyl}-5-cyclopropyl-1H-pyrazole-4-carboxylic Acid] came in with an EC50 in test [1] (Homo sapiens, BEAS-2B, 48 h) of 10 to 100 nM. This compound also returned a half-inhibitory concentration (IC50) in test [2] of 10 to 100 nM.
In test [1] (Homo sapiens, BEAS-2B, 48 h), `O=C(O)c1cnn(-c2cccc(C3=CC(C(=O)N4CCCCCC4)CCC3)c2)c1C1CC1` (stereo not drawn) [Example 19, 1-(5′-(Azepane-1-carbonyl)-2′,3′,4′,5′-tetrahydro-[1,1′-biphenyl]-3-yl)-5-cyclopropyl-1H-pyrazole-4-carboxylic Acid] had a concentration giving a half-maximal response (EC50) of 1000 to 10000 nM. Besides, in test [2], the IC50 fell in the range of 100 to 1000 nM.
In turn, `CCCCC1CCc2cnn([C@@H]3CCC[C@@H](c4cccc(-n5ncc(C(=O)O)c5C5CC5)c4)C3)c21` (stereo partly drawn) [Example 38, 1-(3-((1,3-trans)-3-(6-Butyl-5,6-dihydrocyclopenta[c]pyrazol-1(4H)-yl)cyclohexyl)phenyl)-5-cyclopropyl-1H-pyrazole-4-carboxylic Acid] yielded an EC50 in test [1] (48 hours) of 100 to 1000 nM. In test [2], this compound came in with an IC50 of 1000 to 10000 nM.
In test [1] (Homo sapiens, BEAS-2B, 48 h), `Cn1cc(C2CC2c2c(C(=O)O)cnn2-c2cccc([C@@H]3CCC[C@H](n4ncc5c4C(C)(C)CC5)C3)c2)nn1` (stereo partly drawn) [Example 39, 1-(3-((1R,3S)-3-(6,6-Dimethyl-5,6-dihydrocyclopenta[c]pyrazol-1(4H)-yl)cyclohexyl)phenyl)-5-(2-(1-methyl-1H-1,2,3-triazol-4-yl)cyclopropyl)-1H-pyrazole-4-carboxylic Acid] returned a 50% effective concentration (EC50) of 100 to 1000 nM. Also, in test [2], the IC50 lay in the range of 10 to 100 nM.
The like results for `Cn1cc(C2CC2c2c(C(=O)O)cnn2-c2cccc([C@H]3CCC[C@H](n4ncc5c4C(C)(C)CC5)C3)c2)nn1` (stereo partly drawn) [Example 40, 1-(3-((1,3-trans)-3-(6,6-Dimethyl-5,6-dihydrocyclopenta[c]pyrazol-1(4H)-yl)cyclohexyl)phenyl)-5-(2-(1-methyl-1H-1,2,3-triazol-4-yl)cyclopropyl)-1H-pyrazole-4-carboxylic Acid] were, in that order, 1000 to 10000 nM and 10 to 100 nM.
With `CCCCC1CCCC1N(C)C(=O)C1CCCC(c2cccc(-n3ncc(C(=O)O)c3C3CC3)c2)C1` (stereo not drawn) [Example 41, 1-(3-(3-((2-Butylcyclopentyl)(methyl)carbamoyl)cyclohexyl)phenyl)-5-cyclopropyl-1H-pyrazole-4-carboxylic Acid], the EC50 in test [1] (Homo sapiens, BEAS-2B, 48 h) is 100 to 1000 nM. The same compound gave an IC50 in test [2] of 100 to 1000 nM.
For `CCCCC1CCCN1C(=O)C1CCCC(c2cccc(-n3ncc(C(=O)O)c3C3CC3c3cn(C)nn3)c2)C1` (stereo not drawn) [Example 42, 1-(3-(3-(2-Butylpyrrolidine-1-carbonyl)cyclohexyl)phenyl)-5-(2-(1-methyl-1H-1,2,3-triazol-4-yl)cyclopropyl)-1H-pyrazole-4-carboxylic Acid], the EC50 in test [1] (Homo sapiens, BEAS-2B, 48 h) lay within 1000 to 10000 nM. Further, the IC50 in test [2] was in the range of 10 to 100 nM.

As usually defined, the EC50 is the concentration needed to bring the measured effect to its halfway point. A low value points to greater potency. In general, IC50 refers to the concentration that gives 50% inhibition. High values mean weaker potency, low ones greater potency.
